These results are taken from patent US10448639B2, “Fungicidal pyrazoles” (FMC CORPORATION, priority 2009, dated 2019).

One assay deals with Septoria nodorum. The assay can be described thus: Test F: Septoria glume blotch, preventive spray on wheat seedlings, visual disease rating. Conditions: Parastagonospora nodorum, in Triticum aestivum, 192 h, read-out: Test F rating (% disease control).
`Cc1nn(C)c(Oc2ccc(C#N)cc2Cl)c1-c1ccc(F)cc1Cl` [Compound 139, 3-chloro-4-[[4-(2-chloro-4-fluorophenyl)-1,3-dimethyl-1H-pyrazol-5-yl]oxy]benzonitrile]: the pest or weed control at 200 µg/mL is 100%.

Still in this assay, the particulars now being: Septoria glume blotch on wheat, preventive spray; 100 = 100% disease control, 0 = no control.
On to `CCn1nc(C)c(-c2c(F)cccc2F)c1Nc1cc(OC)cc(OC)c1` [compound 63], for which the “Test F rating (% disease control)” value was 0%.
On the same count and under the same terms, with `COc1cc(F)c(Nc2c(-c3c(F)cc(C#N)cc3F)c(C)nn2C)c(F)c1` [compound 134] the figure was 0%; with `Cc1nn(C)c(Oc2ccc(C#N)cc2Cl)c1-c1c(F)cc(F)cc1F` [compound 98], 69%.
As for `Cc1nn(C)c(Nc2ncc(Cl)cc2Cl)c1-c1c(F)cc(F)cc1F` [compound 101], the “Test F rating (% disease control)” value was 100%.
On the same count and under the same terms, the result for `Cc1nn(C)c(Oc2ccc([N+](=O)[O-])cc2F)c1-c1ccc(F)cc1Cl` [compound 20] reads 100%; that for `Cc1nn(C)c(Nc2cc(Cl)ccc2Cl)c1-c1c(F)cc(C#N)cc1F` [compound 146], 0%.
Same read-out and setting: with `COc1ccc(Nc2c(-c3ccc(Cl)cc3)c(C)nn2C)c(Cl)c1` [compound 60] the figure was 0%.

A further assay concerns Erysiphe graminis f sp. tritici. The assay can be described thus: Test J: wheat powdery mildew, preventive spray on wheat seedlings, visual disease rating. Conditions: Blumeria graminis, in Triticum aestivum, 192 h, read-out: Test J rating (% disease control).
Take `Cc1nn(C)c(Oc2ccc(C#N)cc2Cl)c1-c1ccc(F)cc1Cl` [Compound 139, 3-chloro-4-[[4-(2-chloro-4-fluorophenyl)-1,3-dimethyl-1H-pyrazol-5-yl]oxy]benzonitrile]: the pest or weed control at 200 µg/mL came out at 100%.

The same assay, now with this note: wheat powdery mildew, preventive spray; 100 = 100% disease control, 0 = no control.
Turning to `CCn1nc(C)c(-c2c(F)cccc2F)c1Nc1cc(OC)cc(OC)c1` [compound 63], the “Test J rating (% disease control)” value is on record as 0%.
On the same count and under the same terms, with `COc1cc(F)c(Nc2c(-c3c(F)cc(C#N)cc3F)c(C)nn2C)c(F)c1` [compound 134] the figure was 0%; with `Cc1nn(C)c(Oc2ccc(C#N)cc2Cl)c1-c1c(F)cc(F)cc1F` [compound 98], 99%.
On the same count and under the same terms, the result for `Cc1nn(C)c(Nc2ncc(Cl)cc2Cl)c1-c1c(F)cc(F)cc1F` [compound 101] reads 100%; that for `Cc1nn(C)c(Oc2ccc([N+](=O)[O-])cc2F)c1-c1ccc(F)cc1Cl` [compound 20], 99%.
For `Cc1nn(C)c(Nc2cc(Cl)ccc2Cl)c1-c1c(F)cc(C#N)cc1F` [compound 146], the “Test J rating (% disease control)” value was determined as 56%.
The same measure, in the same setting: with `COc1ccc(Nc2c(-c3ccc(Cl)cc3)c(C)nn2C)c(Cl)c1` [compound 60] the figure was 0%.

Another assay relates to Septoria tritici. The assay can be described thus: Test G: wheat leaf blotch, preventive spray on wheat seedlings, visual disease rating. Conditions: Zymoseptoria tritici, in Triticum aestivum, 504 h, read-out: Test G rating (% disease control).
Consider `Cc1nn(C)c(Oc2ccc(C#N)cc2Cl)c1-c1ccc(F)cc1Cl` [Compound 139, 3-chloro-4-[[4-(2-chloro-4-fluorophenyl)-1,3-dimethyl-1H-pyrazol-5-yl]oxy]benzonitrile], for which the pest or weed control at 200 µg/mL worked out at 100%.

Staying with this assay, now noted: wheat leaf blotch, preventive spray; 100 = 100% disease control, 0 = no control.
For the molecule `CCn1nc(C)c(-c2c(F)cccc2F)c1Nc1cc(OC)cc(OC)c1` [compound 63], the “Test G rating (% disease control)” value came out at 0%.
Still for that read-out and setting: with `COc1cc(F)c(Nc2c(-c3c(F)cc(C#N)cc3F)c(C)nn2C)c(F)c1` [compound 134] the figure was 99%.
Still for that read-out and setting: with `Cc1nn(C)c(Oc2ccc(C#N)cc2Cl)c1-c1c(F)cc(F)cc1F` [compound 98] the figure was 100%; with `Cc1nn(C)c(Nc2ncc(Cl)cc2Cl)c1-c1c(F)cc(F)cc1F` [compound 101], 100%.
On the same count and under the same terms, the result for `Cc1nn(C)c(Oc2ccc([N+](=O)[O-])cc2F)c1-c1ccc(F)cc1Cl` [compound 20] reads 100%; that for `Cc1nn(C)c(Nc2cc(Cl)ccc2Cl)c1-c1c(F)cc(C#N)cc1F` [compound 146], 99%.
Take `COc1ccc(Nc2c(-c3ccc(Cl)cc3)c(C)nn2C)c(Cl)c1` [compound 60]: the “Test G rating (% disease control)” value was 97%.

A further assay has as its system Alternaria solani. The assay can be described thus: Test C: tomato early blight, preventive spray on tomato seedlings, visual disease rating. The following applies: Alternaria solani, in Solanum lycopersicum, 168 h, read-out: Test C rating (% disease control).
Description: (§1) General protocol for preparing test suspensions for Tests A-J: the test compounds were first dissolved in acetone in an amount equal to 3% of the final volume and then suspended at the desired concentration (in ppm) in acetone and purified water (50/50 mix by volume) containing 250 ppm of the surfactant Trem® 014 (polyhydric alcohol esters). The resulting test suspensions were then used in Tests A-J. Spraying a 200 ppm test suspension to the point of run-off on the test plants was the equivalent of a rate of 500 g/ha. Unless otherwise indicated, the rating values indicate a 200 ppm test suspension was used. (An asterisk “*” next to the rating value indicates a 40 ppm test suspension was used.)
The test suspension was sprayed to the point of run-off on tomato seedlings. The following day the seedlings were inoculated with a spore suspension of Alternaria solani (the causal agent of tomato early blight) and incubated in a saturated atmosphere at 27° C. for 48 h, and then moved to a growth chamber at 20° C. for 5 days, after which time visual disease ratings were made.
Regarding `Cc1nn(C)c(Oc2ccc(C#N)cc2Cl)c1-c1ccc(F)cc1Cl` [Compound 139, 3-chloro-4-[[4-(2-chloro-4-fluorophenyl)-1,3-dimethyl-1H-pyrazol-5-yl]oxy]benzonitrile], the pest or weed control at 200 µg/mL came out at 86%.

The assay is the same for the next values; noted with them: tomato early blight, preventive spray; 100 = 100% disease control, 0 = no control.
For `CCn1nc(C)c(-c2c(F)cccc2F)c1Nc1cc(OC)cc(OC)c1` [compound 63], the “Test C rating (% disease control)” value is recorded as 0%.
`COc1cc(F)c(Nc2c(-c3c(F)cc(C#N)cc3F)c(C)nn2C)c(F)c1` [compound 134]: the “Test C rating (% disease control)” value came out at 0%.
Take `Cc1nn(C)c(Oc2ccc(C#N)cc2Cl)c1-c1c(F)cc(F)cc1F` [compound 98]: the “Test C rating (% disease control)” value was found to be 17%.
The same measure, in the same setting: the result for `Cc1nn(C)c(Nc2ncc(Cl)cc2Cl)c1-c1c(F)cc(F)cc1F` [compound 101] reads 99%; that for `Cc1nn(C)c(Oc2ccc([N+](=O)[O-])cc2F)c1-c1ccc(F)cc1Cl` [compound 20], 99%.
For the molecule `Cc1nn(C)c(Nc2cc(Cl)ccc2Cl)c1-c1c(F)cc(C#N)cc1F` [compound 146], the “Test C rating (% disease control)” value is on record as 0%.
On the same count and under the same terms, the result for `COc1ccc(Nc2c(-c3ccc(Cl)cc3)c(C)nn2C)c(Cl)c1` [compound 60] reads 0%.

In the next assay the test system is Puccinia recondita f. sp. tritici. Kind of assay: Test H: wheat leaf rust, curative spray on inoculated wheat seedlings, visual disease rating. Conditions: 144 h, read-out: Test H rating (% disease control).
As for `Cc1nn(C)c(Oc2ccc(C#N)cc2Cl)c1-c1ccc(F)cc1Cl` [Compound 139, 3-chloro-4-[[4-(2-chloro-4-fluorophenyl)-1,3-dimethyl-1H-pyrazol-5-yl]oxy]benzonitrile], the pest or weed control at 200 µg/mL was 69%.

The same assay, now with this note: wheat leaf rust, curative spray; 100 = 100% disease control, 0 = no control.
Turning to `CCn1nc(C)c(-c2c(F)cccc2F)c1Nc1cc(OC)cc(OC)c1` [compound 63], the “Test H rating (% disease control)” value amounted to 0%.
The same measure, in the same setting: the result for `COc1cc(F)c(Nc2c(-c3c(F)cc(C#N)cc3F)c(C)nn2C)c(F)c1` [compound 134] reads 0%.
On the same count and under the same terms, with `Cc1nn(C)c(Oc2ccc(C#N)cc2Cl)c1-c1c(F)cc(F)cc1F` [compound 98] the figure was 26%; with `Cc1nn(C)c(Nc2ncc(Cl)cc2Cl)c1-c1c(F)cc(F)cc1F` [compound 101], 99%.
For the molecule `Cc1nn(C)c(Oc2ccc([N+](=O)[O-])cc2F)c1-c1ccc(F)cc1Cl` [compound 20], the “Test H rating (% disease control)” value is given as 79%.
Still for that read-out and setting: with `Cc1nn(C)c(Nc2cc(Cl)ccc2Cl)c1-c1c(F)cc(C#N)cc1F` [compound 146] the figure was 0%.
The same measure, in the same setting: with `COc1ccc(Nc2c(-c3ccc(Cl)cc3)c(C)nn2C)c(Cl)c1` [compound 60] the figure was 59%.

A further assay has the same test system. The assay can be described thus: Test I: wheat leaf rust, preventive spray on wheat seedlings, visual disease rating. The following applies: 192 h, read-out: Test I rating (% disease control).
Description: as §1
The test suspension was sprayed to the point of run-off on wheat seedlings. The following day the seedlings were inoculated with a spore suspension of Puccinia recondita f. sp. tritici (the causal agent of wheat leaf rust) and incubated in a saturated atmosphere at 20° C. for 24 h, and then moved to a growth chamber at 20° C. for 7 days, after which time visual disease ratings were made
A dash (-) indicates no test results.
Consider `Cc1nn(C)c(Oc2ccc(C#N)cc2Cl)c1-c1ccc(F)cc1Cl` [Compound 139, 3-chloro-4-[[4-(2-chloro-4-fluorophenyl)-1,3-dimethyl-1H-pyrazol-5-yl]oxy]benzonitrile], for which the pest or weed control at 200 µg/mL was determined as 99%.

Staying with this assay, now noted: wheat leaf rust, preventive spray; 100 = 100% disease control, 0 = no control.
As to `CCn1nc(C)c(-c2c(F)cccc2F)c1Nc1cc(OC)cc(OC)c1` [compound 63], the “Test I rating (% disease control)” value amounted to 0%.
Still for that read-out and setting: the result for `COc1cc(F)c(Nc2c(-c3c(F)cc(C#N)cc3F)c(C)nn2C)c(F)c1` [compound 134] reads 41%; that for `Cc1nn(C)c(Oc2ccc(C#N)cc2Cl)c1-c1c(F)cc(F)cc1F` [compound 98], 99%.
On the same count and under the same terms, the result for `Cc1nn(C)c(Nc2ncc(Cl)cc2Cl)c1-c1c(F)cc(F)cc1F` [compound 101] reads 99%.
Same read-out and setting: with `Cc1nn(C)c(Oc2ccc([N+](=O)[O-])cc2F)c1-c1ccc(F)cc1Cl` [compound 20] the figure was 100%; with `Cc1nn(C)c(Nc2cc(Cl)ccc2Cl)c1-c1c(F)cc(C#N)cc1F` [compound 146], 97%; with `COc1ccc(Nc2c(-c3ccc(Cl)cc3)c(C)nn2C)c(Cl)c1` [compound 60], 79%.

In the next assay the test system is Botrytis cinerea. The assay can be described thus: Test B: tomato Botrytis, preventive spray on tomato seedlings, visual disease rating. The following applies: Botrytis cinerea, in Solanum lycopersicum, 120 h, read-out: Test B rating (% disease control).
`Cc1nn(C)c(Oc2ccc(C#N)cc2Cl)c1-c1ccc(F)cc1Cl` [Compound 139, 3-chloro-4-[[4-(2-chloro-4-fluorophenyl)-1,3-dimethyl-1H-pyrazol-5-yl]oxy]benzonitrile]: the pest or weed control at 200 µg/mL was found to be 100%.

The same assay, now with this note: tomato Botrytis, preventive spray; 100 = 100% disease control, 0 = no control.
Regarding `CCn1nc(C)c(-c2c(F)cccc2F)c1Nc1cc(OC)cc(OC)c1` [compound 63], the “Test B rating (% disease control)” value is recorded as 0%.
Still for that read-out and setting: with `COc1cc(F)c(Nc2c(-c3c(F)cc(C#N)cc3F)c(C)nn2C)c(F)c1` [compound 134] the figure was 99%; with `Cc1nn(C)c(Oc2ccc(C#N)cc2Cl)c1-c1c(F)cc(F)cc1F` [compound 98], 100%.
Still for that read-out and setting: with `Cc1nn(C)c(Nc2ncc(Cl)cc2Cl)c1-c1c(F)cc(F)cc1F` [compound 101] the figure was 100%; with `Cc1nn(C)c(Oc2ccc([N+](=O)[O-])cc2F)c1-c1ccc(F)cc1Cl` [compound 20], 100%; with `Cc1nn(C)c(Nc2cc(Cl)ccc2Cl)c1-c1c(F)cc(C#N)cc1F` [compound 146], 99%.
The same measure, in the same setting: with `COc1ccc(Nc2c(-c3ccc(Cl)cc3)c(C)nn2C)c(Cl)c1` [compound 60] the figure was 75%.
